Source: ChEMBL document CHEMBL1201862, “PubChem BioAssay data set” (2004)
Calls of active or inactive are those of the source.

Tests used:
Type in all cases: functional
[1] = SAR analysis of small molecule activators of Apaf-1 using a LZ-Caspase-9/Caspase-3 Fluorescent Selectivity assay - Set 2.; details: read-out: EC50_Mean
[2] = target: Apoptotic protease-activating factor 1 (Homo sapiens, UniProt O14727); experiment: SAR analysis of small molecule Activators of Apaf-1 in a Fluorescent assay - set 2.; details: read-out: EC50_Mean
Sequence of Apoptotic protease-activating factor 1 (O14727 whole entry): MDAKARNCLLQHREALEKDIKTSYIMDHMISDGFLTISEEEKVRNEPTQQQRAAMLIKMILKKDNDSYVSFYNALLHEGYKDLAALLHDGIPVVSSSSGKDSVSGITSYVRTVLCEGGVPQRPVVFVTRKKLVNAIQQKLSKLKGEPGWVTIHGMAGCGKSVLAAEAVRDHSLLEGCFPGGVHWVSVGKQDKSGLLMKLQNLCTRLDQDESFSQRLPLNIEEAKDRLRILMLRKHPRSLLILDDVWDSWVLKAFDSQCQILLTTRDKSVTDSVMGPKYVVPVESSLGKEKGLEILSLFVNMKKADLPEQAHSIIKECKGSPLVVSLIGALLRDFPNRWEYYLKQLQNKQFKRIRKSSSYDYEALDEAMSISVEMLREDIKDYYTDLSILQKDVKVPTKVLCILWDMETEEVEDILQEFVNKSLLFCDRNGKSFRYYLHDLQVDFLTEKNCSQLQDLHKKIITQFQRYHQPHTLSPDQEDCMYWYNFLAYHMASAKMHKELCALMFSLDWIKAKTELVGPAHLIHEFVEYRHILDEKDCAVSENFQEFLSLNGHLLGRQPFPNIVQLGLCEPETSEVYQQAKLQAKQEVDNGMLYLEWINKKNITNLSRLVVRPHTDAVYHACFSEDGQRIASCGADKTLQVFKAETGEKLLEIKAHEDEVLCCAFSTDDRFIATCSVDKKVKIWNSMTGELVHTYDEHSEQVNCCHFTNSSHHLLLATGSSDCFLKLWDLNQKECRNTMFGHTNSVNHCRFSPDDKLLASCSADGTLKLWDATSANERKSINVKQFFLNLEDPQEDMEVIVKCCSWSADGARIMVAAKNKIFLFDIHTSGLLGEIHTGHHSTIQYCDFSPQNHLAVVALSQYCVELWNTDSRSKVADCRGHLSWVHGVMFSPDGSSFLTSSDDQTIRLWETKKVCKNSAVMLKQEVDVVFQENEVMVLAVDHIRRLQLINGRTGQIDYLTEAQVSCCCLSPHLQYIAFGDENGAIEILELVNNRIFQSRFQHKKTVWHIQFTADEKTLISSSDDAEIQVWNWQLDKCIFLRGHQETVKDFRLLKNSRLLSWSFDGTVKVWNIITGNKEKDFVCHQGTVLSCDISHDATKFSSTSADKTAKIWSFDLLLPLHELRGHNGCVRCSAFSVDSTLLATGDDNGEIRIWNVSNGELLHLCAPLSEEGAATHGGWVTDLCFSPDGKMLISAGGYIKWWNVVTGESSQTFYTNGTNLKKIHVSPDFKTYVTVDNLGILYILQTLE

[3] = target: T1, Neuropeptides B/W receptor type 1 (Homo sapiens, UniProt P48145); experiment: human NPBW1 receptor blockade, IC50 – cell-based, fluorescence, dose response, set 5, late-stage follow-up (AID 588566)
T1 sequence (P48145 whole entry): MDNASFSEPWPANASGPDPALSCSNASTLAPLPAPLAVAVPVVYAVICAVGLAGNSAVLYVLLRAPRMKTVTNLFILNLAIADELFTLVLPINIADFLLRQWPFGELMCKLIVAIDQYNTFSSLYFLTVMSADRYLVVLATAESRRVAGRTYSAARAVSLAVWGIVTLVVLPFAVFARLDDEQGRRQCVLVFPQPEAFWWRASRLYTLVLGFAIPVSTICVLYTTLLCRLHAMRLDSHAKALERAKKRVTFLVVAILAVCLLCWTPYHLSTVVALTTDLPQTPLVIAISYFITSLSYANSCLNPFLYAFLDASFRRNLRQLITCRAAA

[4] = target: Melanin-concentrating hormone receptor 1 (Homo sapiens, UniProt Q99705); experiment: Late-stage fluorescence-based counterscreen for antagonists of the G-protein coupled receptor 7 (GPR7): cell-based dose response assay to identify antagonists of the melanin-concentrating hormone receptor 1 (MCHR1) Set 5.
Sequence of Melanin-concentrating hormone receptor 1 (Q99705 whole entry): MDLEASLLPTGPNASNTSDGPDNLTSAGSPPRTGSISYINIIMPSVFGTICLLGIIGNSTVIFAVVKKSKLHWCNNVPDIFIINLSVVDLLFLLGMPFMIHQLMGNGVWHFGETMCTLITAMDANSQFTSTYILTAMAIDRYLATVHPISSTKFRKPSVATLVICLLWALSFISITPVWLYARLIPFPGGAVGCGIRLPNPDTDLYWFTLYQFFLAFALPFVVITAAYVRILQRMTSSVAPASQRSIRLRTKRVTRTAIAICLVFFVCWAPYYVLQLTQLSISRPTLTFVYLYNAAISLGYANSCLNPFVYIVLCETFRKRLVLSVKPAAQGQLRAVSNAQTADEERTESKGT

What does the source list for `Cc1nc2ccccc2n1CC(C)C(=O)O` (centres undefined)?
EC50 [1]: > 100 µM (inactive); EC50 [2]: 94.1 µM (active)

With `N#CC(c1ccccc1)c1cnn(Cc2cccc3ccccc23)c(=O)c1Br` (centres undefined) as the compound, how does the IC50 [3] read?
The IC50 was ~0.227 µM (active).

What about the IC50 [4] of the same compound?
The IC50 was > 20 µM (inactive).
